Laboratory results from patent US12404279B2, “Deubiquitinase inhibitors and methods of use thereof” (Molecure S.A., priority 2021, dated 2025).
Structures can show the parent of a compound that is named as a salt.

Target: full-length USP7 (Homo sapiens (Human), UniProt Q93009)
Assay: Enzymatic assay to determine IC50 of USP7 inhibitors (Ubiquitin-Rhodamine 110 cleavage)
Format: biochemical
Conditions: for inhibition at 1 µM: at 1 μM of the test compound, given where IC50 not determined yet, read-out: percent value of inhibition of USP7 activity; for IC50: 0.5 nM USP7, 0.5 μM Ubiquitin-Rhodamine 110, 45 min at 37° C.
In short: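 Full-length USP7 (0.5 nM) in 50 mM HEPES pH 7.5, 150 mM NaCl, 1 mM DTT, 1 mg/ml BSA, 0.05% Tween20 was preincubated 15 min with DTT at room temperature before compound addition.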

full-length USP7, sequence (Q93009 whole entry): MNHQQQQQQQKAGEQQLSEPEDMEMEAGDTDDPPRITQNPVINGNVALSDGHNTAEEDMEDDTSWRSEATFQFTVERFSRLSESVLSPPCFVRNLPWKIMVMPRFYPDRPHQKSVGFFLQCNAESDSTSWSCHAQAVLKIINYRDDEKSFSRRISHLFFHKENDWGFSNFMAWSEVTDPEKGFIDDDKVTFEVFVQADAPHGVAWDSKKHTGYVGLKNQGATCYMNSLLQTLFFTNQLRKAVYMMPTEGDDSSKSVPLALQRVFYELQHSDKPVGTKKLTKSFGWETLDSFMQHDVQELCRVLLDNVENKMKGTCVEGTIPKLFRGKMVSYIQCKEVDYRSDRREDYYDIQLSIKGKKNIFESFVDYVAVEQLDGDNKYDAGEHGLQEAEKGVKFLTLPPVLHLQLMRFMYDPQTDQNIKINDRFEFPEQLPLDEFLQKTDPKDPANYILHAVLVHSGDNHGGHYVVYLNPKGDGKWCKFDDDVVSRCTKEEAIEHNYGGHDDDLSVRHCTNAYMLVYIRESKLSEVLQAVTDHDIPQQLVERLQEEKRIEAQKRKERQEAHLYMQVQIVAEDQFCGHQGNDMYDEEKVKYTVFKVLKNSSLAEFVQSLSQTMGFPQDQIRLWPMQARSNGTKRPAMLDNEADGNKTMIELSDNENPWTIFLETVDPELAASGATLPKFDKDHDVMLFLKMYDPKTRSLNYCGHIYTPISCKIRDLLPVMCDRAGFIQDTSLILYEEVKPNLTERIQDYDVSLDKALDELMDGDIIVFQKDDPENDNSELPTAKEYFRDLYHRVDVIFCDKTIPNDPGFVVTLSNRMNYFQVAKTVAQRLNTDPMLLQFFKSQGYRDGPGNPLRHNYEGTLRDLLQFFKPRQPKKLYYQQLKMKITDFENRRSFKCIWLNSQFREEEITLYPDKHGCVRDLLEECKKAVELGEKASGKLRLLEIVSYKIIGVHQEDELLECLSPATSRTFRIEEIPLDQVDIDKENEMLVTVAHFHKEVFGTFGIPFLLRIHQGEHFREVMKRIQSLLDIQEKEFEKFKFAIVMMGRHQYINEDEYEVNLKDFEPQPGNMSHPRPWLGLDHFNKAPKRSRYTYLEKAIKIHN

inhibition at 1 µM [%]	IC50 [nM]	Compound
50 to 70	–	CC1(C)C2C(=O)N(Cc3cc4nccc(-c5cc(Cl)cnc5O[C@H]5CCCNC5)c4s3)C(=O)C21 (stereo partly drawn) [Example 161, 3-((7-(5-chloro-2-(((S)-piperidin-3-yl)oxy)pyridin-3-yl)thieno[3,2-b]pyridin-2-yl)methyl)-6,6-dimethyl-3-azabicyclo[3.1.0]hexane-2,4-dione dihydrochloride]
–	< 500	Cc1c(Cl)cc(-c2ccnc3cc(CN4C(=O)C5C(C4=O)C5(C)C)sc23)n1C[C@@H]1CNCCO1 (stereo partly drawn) [Example 162, 3-((7-(4-chloro-5-methyl-1-(((S)-morpholin-2-yl)methyl)-1H-pyrrol-2-yl)thieno[3,2-b]pyridin-2-yl)methyl)-6,6-dimethyl-3-azabicyclo[3.1.0]hexane-2,4-dione hydrochloride]
–	500 to 1000	Cc1cc(C(F)(F)F)nc(-c2ccnc3cc(CN4C(=O)C5C(C4=O)C5(C)C)sc23)c1C(=O)N1C[C@@H]2CCN[C@@H]2C1 (stereo partly drawn) [Example 163, 6,6-dimethyl-3-((7-(4-methyl-3-((3aS,6aS)-octahydropyrrolo[3,4-b]pyrrole-5-carbonyl)-6-(trifluoromethyl)pyridin-2-yl)thieno[3,2-b]pyridin-2-yl)methyl)-3-azabicyclo[3.1.0]hexane-2,4-dione hydrochloride]
< 20	–	CC1(C)C2C(=O)N(Cc3cc4nccc(-c5cc(Cl)cnc5O[C@H]5CCNC5)c4s3)C(=O)C21 (stereo partly drawn) [Example 164, 3-((7-(5-chloro-2-(((S)-pyrrolidin-3-yl)oxy)pyridin-3-yl)thieno[3,2-b]pyridin-2-yl)methyl)-6,6-dimethyl-3-azabicyclo[3.1.0]hexane-2,4-dione dihydrochloride]
20 to 49	–	Cc1cc(C(F)(F)F)nc(-c2ccnc3cc(CN4C(=O)C5C(C4=O)C5(C)C)sc23)c1CC1NCCNC1=O (stereo not shown) [Example 165, 6,6-dimethyl-3-((7-(4-methyl-3-((3-oxopiperazin-2-yl)methyl)-6-(trifluoromethyl)pyridin-2-yl)thieno[3,2-b]pyridin-2-yl)methyl)-3-azabicyclo[3.1.0]hexane-2,4-dione hydrochloride]
< 20	–	CC1(C)C2C(=O)N(Cc3cc4nccc(-c5cc(C(F)(F)F)cnc5CC5NCCNC5=O)c4s3)C(=O)C21 (stereo not shown) [Example 166, 6,6-dimethyl-3-((7-(2-((3-oxopiperazin-2-yl)methyl)-5-(trifluoromethyl)pyridin-3-yl)thieno[3,2-b]pyridin-2-yl)methyl)-3-azabicyclo[3.1.0]hexane-2,4-dione hydrochloride]
–	< 500	Cc1c([N+](=O)[O-])cc(-c2ccnc3cc(CN4C(=O)C5C(C4=O)C5(C)C)sc23)n1C[C@H]1CNCCO1 (stereo partly drawn) [Example 167, 6,6-dimethyl-3-((7-(5-methyl-1-(((R)-morpholin-2-yl)methyl)-4-nitro-1H-pyrrol-2-yl)thieno[3,2-b]pyridin-2-yl)methyl)-3-azabicyclo[3.1.0]hexane-2,4-dione hydrochloride]
–	< 500	CN[C@@H]1CN(C(=O)c2c(C)cc(C(F)(F)F)nc2-c2ccnc3cc(CN4C(=O)C5C(C4=O)C5(C)C)sc23)C[C@H]1C (stereo partly drawn) [Example 168, 6,6-dimethyl-3-((7-(4-methyl-3-((3R,4S)-3-methyl-4-(methylamino)pyrrolidine-1-carbonyl)-6-(trifluoromethyl)pyridin-2-yl)thieno[3,2-b]pyridin-2-yl)methyl)-3-azabicyclo[3.1.0]hexane-2,4-dione hydrochloride]
–	< 500	Cc1cc(C(F)(F)F)nc(-c2ccnc3cc(CN4C(=O)C5C(C4=O)C5(C)C)sc23)c1C(=O)N1C[C@@H](N)[C@@H](F)C1 (stereo partly drawn) [Example 169, 3-((7-(3-((3R,4S)-3-amino-4-fluoropyrrolidine-1-carbonyl)-4-methyl-6-(trifluoromethyl)pyridin-2-yl)thieno[3,2-b]pyridin-2-yl)methyl)-6,6-dimethyl-3-azabicyclo[3.1.0]hexane-2,4-dione hydrochloride]
–	< 500	Cc1cc(C(F)(F)F)nc(-c2ccnc3cc(CN4C(=O)C5C(C4=O)C5(C)C)sc23)c1C(=O)N1C[C@H](N)[C@@H](F)C1 (stereo partly drawn) [Example 170, 3-((7-(3-((3S,4S)-3-amino-4-fluoropyrrolidine-1-carbonyl)-4-methyl-6-(trifluoromethyl)pyridin-2-yl)thieno[3,2-b]pyridin-2-yl)methyl)-6,6-dimethyl-3-azabicyclo[3.1.0]hexane-2,4-dione hydrochloride]
50 to 70	–	Cc1cc(C(F)(F)F)nc(-c2ccnc3cc(CN4C(=O)C5C(C4=O)C5(C)C)sc23)c1C(=O)N1C[C@@H](F)[C@@H](N)C1 (stereo partly drawn) [Example 171, 3-((7-(3-((3S,4R)-3-amino-4-fluoropyrrolidine-1-carbonyl)-4-methyl-6-(trifluoromethyl)pyridin-2-yl)thieno[3,2-b]pyridin-2-yl)methyl)-6,6-dimethyl-3-azabicyclo[3.1.0]hexane-2,4-dione hydrochloride]
> 70	–	Cc1cc(C(F)(F)F)nc(-c2ccnc3cc(CN4C(=O)C5C(C4=O)C5(C)C)sc23)c1C(=O)N1C[C@@H](C)[C@H](N(C)C)C1 (stereo partly drawn) [Example 172, 3-((7-(3-((3S,4R)-3-(dimethylamino)-4-methylpyrrolidine-1-carbonyl)-4-methyl-6-(trifluoromethyl)pyridin-2-yl)thieno[3,2-b]pyridin-2-yl)methyl)-6,6-dimethyl-3-azabicyclo[3.1.0]hexane-2,4-dione hydrochloride]

The next lines start with the compound.

Compound	inhibition at 1 µM [%]	IC50 [nM]
Cc1cc(Cl)cc(-c2ccnc3nc(CN4C(=O)C5C(C4=O)C5(C)C)sc23)c1O[C@H]1CCCNC1 (stereo partly drawn) [Example 151, 3-((7-(5-chloro-3-methyl-2-(((S)-piperidin-3-yl)oxy)phenyl)thiazolo[4,5-b]pyridin-2-yl)methyl)-6,6-dimethyl-3-azabicyclo[3.1.0]hexane-2,4-dione dihydrochloride]	< 20	–
CC1(C)C2C(=O)N(Cc3cc4nccc(-c5cc(F)cnc5O[C@H]5CCCNC5)c4s3)C(=O)C21 (stereo partly drawn) [Example 152, 3-((7-(5-fluoro-2-(((S)-piperidin-3-yl)oxy)pyridin-3-yl)thieno[3,2-b]pyridin-2-yl)methyl)-6,6-dimethyl-3-azabicyclo[3.1.0]hexane-2,4-dione dihydrochloride]	< 20	–
Cc1cc(C(F)(F)F)nc(-c2ccnc3cc(CN4C(=O)C5C(C4=O)C5(C)C)sc23)c1CN1CC[C@@H]2CNC[C@@H]21 (stereo partly drawn) [Example 153, 3-((7-(3-(((3aR,6aR)-hexahydropyrrolo[3,4-b]pyrrol-1(2H)-yl)methyl)-4-methyl-6-(trifluoromethyl)pyridin-2-yl)thieno[3,2-b]pyridin-2-yl)methyl)-6,6-dimethyl-3-azabicyclo[3.1.0]hexane-2,4-dione trihydrochloride]	–	< 500
Cc1c([N+](=O)[O-])cc(-c2ccnc3cc(CN4C(=O)C5C(C4=O)C5(C)C)sc23)n1C[C@@H]1CNCCO1 (stereo partly drawn) [Example 154, 6,6-dimethyl-3-((7-(5-methyl-1-(((S)-morpholin-2-yl)methyl)-4-nitro-1H-pyrrol-2-yl)thieno[3,2-b]pyridin-2-yl)methyl)-3-azabicyclo[3.1.0]hexane-2,4-dione hydrochloride]	–	< 500
CCOC(=O)c1c(C(F)(F)F)c(C)n(C[C@@H]2CNCCO2)c1-c1ccnc2cc(CN3C(=O)C4C(C3=O)C4(C)C)sc12 (stereo partly drawn) [Example 155, ethyl 2-(2-((6,6-dimethyl-2,4-dioxo-3-azabicyclo[3.1.0]hexan-3-yl)methyl)thieno[3,2-b]pyridin-7-yl)-5-methyl-1-(((S)-morpholin-2-yl)methyl)-4-(trifluoromethyl)-1H-pyrrole-3-carboxylate hydrochloride]	< 20	–
Cc1cc(C(F)(F)F)nc(-c2ccnc3cc(CN4C(=O)C5C(C4=O)C5(C)C)sc23)c1C(=O)N1CC2CCC1CN2 (stereo not shown) [Example 156, 3-((7-(3-(2,5-diazabicyclo[2.2.2]octane-2-carbonyl)-4-methyl-6-(trifluoromethyl)pyridin-2-yl)thieno[3,2-b]pyridin-2-yl)methyl)-6,6-dimethyl-3-azabicyclo[3.1.0]hexane-2,4-dione hydrochloride]	–	< 500
CC1(C)C2C(=O)N(Cc3cc4nccc(-c5cc(F)cnc5O[C@H]5CCNC5)c4s3)C(=O)C21 (stereo partly drawn) [Example 157, 3-((7-(5-fluoro-2-(((S)-pyrrolidin-3-yl)oxy)pyridin-3-yl)thieno[3,2-b]pyridin-2-yl)methyl)-6,6-dimethyl-3-azabicyclo[3.1.0]hexane-2,4-dione dihydrochloride]	< 20	–
CC1(C)C2C(=O)N(Cc3cc4nccc(-c5cc(F)cnc5O[C@@H]5CCNC5)c4s3)C(=O)C21 (stereo partly drawn) [Example 158, 3-((7-(5-fluoro-2-(((R)-pyrrolidin-3-yl)oxy)pyridin-3-yl)thieno[3,2-b]pyridin-2-yl)methyl)-6,6-dimethyl-3-azabicyclo[3.1.0]hexane-2,4-dione hydrochloride]	< 20	–
Cc1cc(C(F)(F)F)nc(-c2ccnc3cc(CN4C(=O)C5C(C4=O)C5(C)C)sc23)c1CN1CC[C@@H]2CNC[C@@H]21 (stereo partly drawn) [Example 159, 3-((7-(3-(((3aR,6aR)-hexahydropyrrolo[3,4-b]pyrrol-1(2H)-yl)methyl)-4-methyl-6-(trifluoromethyl)pyridin-2-yl)thieno[3,2-b]pyridin-2-yl)methyl)-6,6-dimethyl-3-azabicyclo[3.1.0]hexane-2,4-dione trihydrochloride]	–	< 500
CN[C@H]1CCN(Cc2c(C)cc(C(F)(F)F)nc2-c2ccnc3cc(CN4C(=O)C5C(C4=O)C5(C)C)sc23)C1 (stereo partly drawn) [Example 160, 6,6-dimethyl-3-((7-(4-methyl-3-(((S)-3-(methylamino)pyrrolidin-1-yl)methyl)-6-(trifluoromethyl)pyridin-2-yl)thieno[3,2-b]pyridin-2-yl)methyl)-3-azabicyclo[3.1.0]hexane-2,4-dione hydrochloride]	–	< 500
